Results on one compound are retold here after patent publication US10959981B2, “Composition for preventing or treating climacteric symptoms comprising soybean extract comprising coumestrol as an active ingredient” (AMOREPACIFIC CORPORATION, priority 2014, dated 2021).

In test [1] the test system is procollagen. Put plainly: Procollagen expression in UV-irradiated 3D artificial skin. In kind it is cell-based. The note with it: 20 mJ UV, 0.1 ppm coumestrol or 100 ppm extract, relative to the non-UV-irradiated group as 100, UV-irradiated group 68.7%. The procedure: (§1) It is known that the skin in the climacteric period is vulnerable to skin irritation such as UV because of decreased skin thickness. 3D artificial skin was prepared and the effect of the germinated and fermented bean extract on the skin was tested after UV irradiation.
(§2) A matrix was prepared by mixing 2.64×10^5 fibroblasts in a collagen solution. After seeding 5×10^6 keratinocytes thereon, differentiation into artificial skin was induced by treating with 1.2 mM calcium. 2 weeks later, after irradiating 20 mJ UV on the cells and treating with 0.1 ppm coumestrol or 100 ppm germinated and fermented bean extract, the culture medium was recovered and the expression levels of MMP-1 and procollagen were measured in the same manner as in Test Example 5. The result is given in Table 2 relative to the non-UV-irradiated group as 100.

The test system of test [2] is MMP-1. Put plainly: MMP-1 expression in UV-irradiated 3D artificial skin. The note with it: 20 mJ UV, 0.1 ppm coumestrol or 100 ppm extract, relative to the non-UV-irradiated group as 100, UV-irradiated group 142.4%. In kind it is cell-based. As to the method:
as §1, §2

In test [3] the test system is climacteric mouse models induced by oophorectomy. Put plainly: Bone density by dual-energy X-ray absorptiometry in oophorectomized mice. The format is in vivo. The following applies: oophorectomized hairless mice, 30 weeks old; feed for 14 weeks; extract 500 mg/kg, coumestrol 0.5 mg/kg; control group 0.1975, oophorectomy group 0.1821. The procedure: (§3) Female hairless mice weighing 26-27 g were used as experimental animals. The experimental animals were bred under a condition of 23±1° C., 40-60% humidity and 12-hour light/dark cycles. Basic feed and drinking water were provided ad libitum. On the previous day before blood taking, drinking water was provided only.
Oophorectomy was conducted aseptically after anesthetizing 15-week-old hairless mice and disinfecting with 70% ethanol. After incising skin tissue about 2-3 cm along the spinal cord below one lateral dorsal part, the muscle and peritoneum at the part where an ovary is located were incised by 1.5 cm to expose the ovary. After removing the ovary, the peritoneum, muscle and skin were sutured using silk suture. The ovary at the opposite side was also removed by the same method. For a control group, a sham operation of incising the muscle and peritoneum but suturing without removal of the ovary was conducted. […]
(§4) The experimental animals were divided into the control group (sham operation group) and an oophorectomy group. […] The administration dosage for the coumestrol administration group was determined such that the amount of coumestrol in the germinated and fermented bean was the same as that of the coumestrol 0.5 mg/kg administration group (content of coumestrol in the germinated and fermented bean extract=0.1%; 500 mg/kg×0.1%=0.5 mg/kg). […]

For test [4] the test system is unchanged. Put plainly: Body weight change of oophorectomy-induced climacteric mice over 14 weeks. The format is in vivo. The following applies: oophorectomized hairless mice; feed for 14 weeks; extract 500 mg/kg, coumestrol 0.5 mg/kg; FIG. 1. The procedure: Female hairless mice weighing 26-27 g were used as experimental animals. The experimental animals were bred under a condition of 23±1° C., 40-60% humidity and 12-hour light/dark cycles. Basic feed and drinking water were provided ad libitum. On the previous day before blood taking, drinking water was provided only. Oophorectomy was conducted aseptically after anesthetizing 15-week-old hairless mice and disinfecting with 70% ethanol. After incising skin tissue about 2-3 cm along the spinal cord below one lateral dorsal part, the muscle and peritoneum at the part where an ovary is located were incised by 1.5 cm to expose the ovary. After removing the ovary, the peritoneum, muscle and skin were sutured using silk suture. The ovary at the opposite side was also removed by the same method. For a control group, a sham operation of incising the muscle and peritoneum but suturing without removal of the ovary was conducted. After the surgical operation, the mice were allowed to recover for a week. […] The administration dosage for the coumestrol administration group was determined such that the amount of coumestrol in the germinated and fermented bean was the same as that of the coumestrol 0.5 mg/kg administration group (content of coumestrol in the germinated and fermented bean extract=0.1%; 500 mg/kg×0.1%=0.5 mg/kg). […]

The test system is the same in test [5]. The test is described as follows: Skin thickness measured with calipers in oophorectomized mice. In kind it is in vivo. The note with it: oophorectomized hairless mice, 30 weeks old; extract 500 mg/kg, coumestrol 0.5 mg/kg in feed for 14 weeks; FIG. 2. As to the method: as §3
Oophorectomy was conducted aseptically after anesthetizing 15-week-old hairless mice and disinfecting with 70% ethanol. After incising skin tissue about 2-3 cm along the spinal cord below one lateral dorsal part, the muscle and peritoneum at the part where an ovary is located were incised by 1.5 cm to expose the ovary. After removing the ovary, the peritoneum, muscle and skin were sutured using silk suture. The ovary at the opposite side was also removed by the same method. […]
as §4
Skin thickness was measured for the same test group (30 weeks old) as that in Test Example 1 using calipers (HEPT, Cjina).

SMILES strings stand for the structures.

As to `O=c1oc2cc(O)ccc2c2oc3cc(O)ccc3c12` [coumestrol], the Procollagen in test [1] turned out to be 82.4%. This compound also had an MMP-1 in test [2] of 122.8%. Also, in test [3], the Bone density came to 0.1902 g/cm^2. Besides, the weight gain result in test [4] is “significantly less than that of the oophorectomy group”. Besides, in test [5], the skin thickness result was “the same as that of the oophorectomy group”.
